Source: patent publication US20230174571A1, “METHOD OF TREATING SHIP1-MEDIATED DISEASES USING PELOROL DERIVATIVES” (Zebrapeutics Inc., priority 2020, published 2023)

What was measured:
colitis in IL10−/− mice = experiment: Mouse colitis model (IL10 knock-out); type: in vivo; settings: colitic IL10−/− mice
Experimental: Mouse Colitis Model. Colitis was induced in 6-8 week old BALB/cIL10−/−mice by administering the colonic contents of conventional C57BL/6 mice diluted 1:10 in PBS by oral gavage. Mouse weights and fecal consistencies were monitored and colitis allowed to develop for 6 weeks. Ethanol (Vehicle) and compound I-1 (3 mg/kg) was diluted in cage drinking water and dexamethasone (0.4 mg/kg) was administered every 2 days by oral gavage for 3 weeks. At the end of the dosing period, proximal, medial and distal colon sections were collected for paraffin embedding or stored in RNALater (Invitrogen, Mississauga, ON) for RNA extraction. Slides were prepared, stained with hematoxylin and eosin, and mounted by the UBC Department of Pathology and Laboratory Medicine Histochemistry Facility. Specimens were assigned pathological scores by two, independent, blinded investigators according to a method described by Madsen et al (Madsen et al., 2001). In brief, colonic inflammation was graded using a 4-point scale, scoring 0-3 for each of submucosal edema, immune cell infiltration, goblet cell ablation, and integrity of the epithelial layer. For analysis of mRNA expression, colon sections were homogenized and total RNA extracted as described above and analyzed by real time PCR using gene specific primers for IL17, CCL2, and GAPDH (normalization control).
To show in vivo anti-inflammatory effect of the compounds of the present disclosure, exemplary compound I-1 was administered to IL-10 knock-out mouse model of colitis (Keubler 2015). IL10 knock-out mice develop colitis when colonized with normal gut flora because IL10 is needed to temper the host immune response to intestinal commensal bacteria (Keubler 2015, Kuhn 1993). Colitis was initiated in IL10−/−mice by inoculating them with the freshly isolated colon contents of normal, specific pathogen free mice and allowed inflammation to develop for 6 weeks (Sydora 2003). Mice were then treated for 3 weeks with vehicle, 2 mg/kg compound I-1, or 0.4 mg/kg dexamethasone (anti-inflammatory steroidal drug used as positive control) prior to colon tissue collection for analyses. Hematoxylin and eosin stained sections were prepared from the proximal, mid and distal colons of mice, as well as from mice not inoculated with flora (no colitis group) (FIG. 8A).

MM.1S cells = experiment: MM.1S tumour model in NOD/SCID mice; type: in vivo, mouse; settings: NOD/SCID mice bearing MM.1S tumours; administered through drinking water
Experimental: The IBD model mice were dosed with 2 or 3 mg/kg of compounds of the present disclosure, for example compound I-1. The MM model mice were dosed with about 20 to about 50 mg/kg of compounds of the present disclosure, for example compound I-1. The appropriate amount of 5 mg/mL PBS solution with 5% v/v Cremophore EL/5% v/v ethanol as prepared above was diluted into the mice's drinking water.
MM.1S cells expressing firefly luciferase were injected along with Matrigel basement membrane into the upper flank of NOD/SCID mice and allowed to establish for two weeks. Compound I-1 or vehicle (n=4) were administered through drinking water (as described in General Methods).

CLP-induced sepsis = experiment: Caecum Ligation and Puncture (CLP) sepsis model; type: in vivo, mouse; settings: CLP mice, oral gavage; vs. 20% in CLP group without drug
Excerpt: The mouse CLP model is well-accepted clinically relevant method for anti-sepsis drug testing. The surgical operation included opening of the mouse abdomen, ligation of the cecum and puncture of the ligated cecum with a needle. Rittirsch, 2009 Method was followed to induce Mid to High grade experimental sepsis to achieve 70-100% […] rate over 7 days after CLP operation.
Methods: Five groups (n=10 each) of mice were designed with (1) a blank control, (2) Sham control (abdomen operation was performed but without cecal ligation/puncture), (3) CLP group (operation with cecal ligation/puncture), (4) CLP+compound I-1 (MN100) (3 mg/kg/d), and (5) CLP+compound I-1 (MN100) (10 mg/kg/d). ZPR-MN100 (compound I-1) was given 3 days before CLP operation and continued to 7 days after CLP. ZPR-MN100 was delivered via oral gavage twice a day. […] Mouse condition and survival were recorded every day. Seven days after CLP, the experiment was terminated and survival curves were drawn using GraphPad Prism.

PAC1 = biological target: T1, PAC1 (Mus musculus, UniProt Q9ES52); experiment: Small angle X-ray scattering of PAC1; settings: 190 μM PAC1 with 570 μM compound
T1 construct: PAC1 and PAC2 consists of phosphatase and C2 domain (residues aa 402-861 and aa 402-857 respectively); HMT-tag (His6-MBP-TEV site) (N); made in house; host or cells: E. coli
T1 sequence (Q9ES52 402-861): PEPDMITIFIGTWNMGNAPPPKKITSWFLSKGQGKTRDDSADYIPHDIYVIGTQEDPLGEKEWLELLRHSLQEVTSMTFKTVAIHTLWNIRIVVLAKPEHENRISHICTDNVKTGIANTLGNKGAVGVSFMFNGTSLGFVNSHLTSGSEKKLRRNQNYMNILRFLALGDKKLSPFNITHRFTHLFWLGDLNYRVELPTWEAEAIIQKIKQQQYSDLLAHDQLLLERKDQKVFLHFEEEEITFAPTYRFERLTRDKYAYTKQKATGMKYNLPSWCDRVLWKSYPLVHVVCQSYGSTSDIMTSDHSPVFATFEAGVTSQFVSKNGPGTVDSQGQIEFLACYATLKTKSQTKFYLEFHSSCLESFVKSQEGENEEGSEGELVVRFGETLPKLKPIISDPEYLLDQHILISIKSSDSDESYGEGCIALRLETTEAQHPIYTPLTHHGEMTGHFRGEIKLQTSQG
Experimental: Small angle X-ray scattering. PAC1 samples in 190 μM in 50 mM TrisHCl (pH7.4) 150 mM NaCl, 1 mM TCEP and 2% EtOH with and without 570 μM compound I-1 ([…]). Dynamic Light Scattering (DLS) data for PAC1 and PAC1-compound I-1 complexes were collected prior to SAXS data collection to confirm that all the samples are highly pure and suitable for data collection. The data collection was performed on a 3-pinhole camera (S-MAX3000; Rigaku Americas, The Woodlands, Tex.) equipped with a Rigaku MicroMaxp002 microfocus sealed tube (Cu Kα radiation at 1.54 Å) and a Confocal Max-Flux (CMF) optics system operating at 40 W (Rigaku). Scattering data were recorded using a 200 mm multiwire two-dimensional detector. The data for both samples and buffer were collected for 3 h for each sample within the range of 0.008≤s≤0.26 Å-1 and processed according to the method previously described, where s=4π sin θ/λ (Patel et al., 2011, Patel et al., 2010, Patel et al., 2012). The Normalized Spatial Discrepancy (NSD) of the non-liganded and liganded PAC1 models were 0.6 and 1.0 respectively.

[1] = 3 weeks treatment, RT-qPCR relative to GAPDH

`Cc1cc(O)cc2c1C1(C)CCC3C(C)(C)CCCC3(C)C1C2` (stereo not shown) [Compound I-1] was tested, and the “reduction of histological and molecular markers of colon inflammation, compared with dexamethasone” value (colitis in IL10−/− mice) was “as effective as dexamethasone”, the “pathology scores of colon sections” value (colitis in IL10−/− mice; 3 weeks treatment, 2 mg/kg compound I-1 or 0.4 mg/kg dexamethasone, vs vehicle) was “significantly lower pathology scores” and the “CCL2 mRNA in colon” value (colitis in IL10−/− mice; [1]) was “significantly reduced”. For the same compound, the “IL17 mRNA in colon” value (colitis in IL10−/− mice; [1]) was “significantly reduced”, the “tumour mass (bioluminescence imaging)” value (MM.1S cells) was “effectively reduces tumour mass” and the 7-day survival rate (CLP-induced sepsis) was 50%. The “overall conformation of PAC1 on binding (SAXS)” value (PAC1) was “results in a change in its overall conformation”.
